From patent US10611731B2, “5-methyl-6-phenyl-4,5-dihydro-2H-pyridazin-3-one derivative” (OTSUKA PHARMACEUTICAL CO., LTD., priority 2016, dated 2020)

system: human childhood brain tumor cell lines (PFSK-1); test: Growth inhibitory activity against PFSK-1 cells (WST-8, Cell Counting Kit-8); type: cell-based; conditions: Homo sapiens, 72 h, 3 days incubation with test compound, WST-8 OD 450/630 nm, read-out: IC50 (concentration inhibiting 50% of the cell growth)
Protocol: The growth inhibitory activity against human childhood brain tumor cell lines (PFSK-1) was measured with WST-8 reagent [2-(2-methoxy-4-nitrophenyl)-3-(4-nitrophenyl)-5-(2,4-disulfophenyl)-2H-tetrazolium monosodium salt, Cell Counting Kit-8™], according to the method described in Tominaga, H. et al., Anal. Commun., 1999, 36, 47-50. Briefly, PFSK-1 was seeded in 96-well microplate at 100 μL/well with Roswell Park Memorial Institute (RPMI) 1640 medium containing 10% fetal bovine serum (FBS), and the cells were incubated in the presence of 5% carbon dioxide (CO2) at 37° C. for 24 hours. 50 μL of each test compound diluted with the medium was added to each well, and then the cells were incubated further for 3 days. After the incubation, 15 μL of Cell Counting Kit-8™ was added to each well, and the cells were incubated for one and half hours. Then, optical density (OD) values at measurement wavelength 450 nm and reference wavelength 630 nm were measured and the difference thereof was calculated. From the calculated difference, the OD value difference (at measurement wavelength 450 nm and reference wavelength 630 nm) of the control well which includes no cell was subtracted to afford cell-growth activity in each well.
The cell growth inhibitory activity of each test compound was calculated by comparing the cell-growth activity with each test compound to the cell-growth activity without any test compound (control), and each IC50 (nM) which is the concentration inhibiting 50% of the cell growth was calculated.

| SMILES | IC50 |
| --- | --- |
| Cc1cc(C2=NNC(=O)CC2C)cc(Cl)c1OC[C@H]1C[C@H]1CO (relative stereo) [Example 155, 6-(3-Chloro-4-{[(1 S*,2R*)-2-(hydroxymethyl)cyclopropyl]methoxy}-5-methylphenyl)-5-methyl-4,5-dihydro-2H-pyridazin-3-one] | 2.2 nM |
| CC1CC(=O)NN=C1c1ccc(OCC2(O)CC2)c(Cl)c1O (stereo not shown) [Example 174, 6-{3-Chloro-2-hydroxy-4-[(1-hydroxycyclopropyl)methoxy]phenyl}-5-methyl-4,5-dihydro-2H-pyridazin-3-one] | 4.2 nM |
| Cc1cc(C2=NNC(=O)CC2C)c(F)c(Cl)c1OCC(C)(C)CO (stereo not shown) [Example 137, 6-[3-chloro-2-fluoro-4-(3-hydroxy-2,2-dimethylpropoxy)-5-methylphenyl]-5-methyl-4,5-dihydro-2H-pyridazin-3-one] | < 1 nM |
| CCc1c(OCCCO)ccc(C2=NNC(=O)CC2C)c1F (stereo not shown) [Example 23, 6-[3-Ethyl-2-fluoro-4-(3-hydroxypropoxy)phenyl]-5-methyl-4,5-dihydro-2H-pyridazin-3-one] | 8 nM |
| Cc1cc(C2=NNC(=O)CC2C)c(O)c(Cl)c1OCC(C)O (stereo not shown) [Example 164, 6-[3-Chloro-2-hydroxy-4-(2-hydroxypropoxy)-5-methylphenyl]-5-methyl-4,5-dihydro-2H-pyridazin-3-one] | 4.9 nM |
| CC1CC(=O)NN=C1c1cc(F)c(OC/C=C\CO)c(Br)c1 (stereo not shown) [Example 95, 6-{3-Bromo-5-fluoro-4-[(Z)-4-hydroxy-2-butenyloxy]phenyl}-5-methyl-4,5-dihydro-2H-pyridazin-3-one] | 3 nM |
| CCC(O)COc1c(C)cc(C2=NNC(=O)CC2C)cc1Cl (stereo not shown) [Example 65, 6-[3-Chloro-4-(2-hydroxybutoxy)-5-methylphenyl]-5-methyl-4,5-dihydro-2H-pyridazin-3-one] | 4.3 nM |
| C[C@@H]1CC(=O)NN=C1c1ccc(OC/C=C\CO)c(Cl)c1O [Example 183, (5R)-(−)-6-{3-chloro-2-hydroxy-4-[(Z)-4-hydroxy-2-butenyloxy]phenyl}-5-methyl-4,5-dihydro-2H-pyridazin-3-one] | 4.5 nM |
| C[C@@H]1CC(=O)NN=C1c1cc(Cl)c(OCC(C)(C)CO)c(Br)c1 [Example 127, (5R)-(−)-6-[3-bromo-5-chloro-4-(3-hydroxy-2,2-dimethylpropoxy)phenyl]-5-methyl-4,5-dihydro-2H-pyridazin-3-one] | < 1 nM |
| Cc1cc(C2=NNC(=O)CC2C)cc(Cl)c1OCC(C)(C)CO (stereo not shown) [Example 72, 6-[3-chloro-4-(3-hydroxy-2,2-dimethylpropoxy)-5-methylphenyl]-5-methyl-4,5-dihydro-2H-pyridazin-3-one] | 0.9 nM |
| Cc1cc(C2=NNC(=O)CC2C)cc(Cl)c1OC[C@H](C)O (stereo partly drawn) [Example 39, 6-{3-Chloro-4-[(2S)-2-hydroxypropoxy]-5-methylphenyl}-5-methyl-4,5-dihydro-2H-pyridazin-3-one] | 2.8 nM |
| CC1CC(=O)NN=C1c1ccc(OCCCCCO)c(Cl)c1F (stereo not shown) [Example 91, 6-[3-Chloro-2-fluoro-4-(5-hydroxypentoxy)phenyl]-5-methyl-4,5-dihydro-2H-pyridazin-3-one] | 6 nM |
| C[C@@H]1CC(=O)NN=C1c1ccc(OCC(C)(C)O)c(Cl)c1F [Example 118, (5R)-(−)-6-[3-chloro-2-fluoro-4-(2-hydroxy-2-methylpropoxy)phenyl]-5-methyl-4,5-dihydro-2H-pyridazin-3-one] | < 1 nM |
| CC(O)COc1c(F)cc(C2=NNC(=O)CC2C)c(F)c1Cl (stereo not shown) [Example 149, 6-[3-Chloro-2,5-difluoro-4-(2-hydroxypropoxy)phenyl]-5-methyl-4,5-dihydro-2H-pyridazin-3-one] | 3.6 nM |
| CC1CC(=O)NN=C1c1cc(Cl)c(OCC2(O)CC2)c(Cl)c1 (stereo not shown) [Example 170, 6-{3,5-Dichloro-4-[(1-hydroxycyclopropyl)methoxy]phenyl}-5-methyl-4,5-dihydro-2H-pyridazin-3-one] | 2.5 nM |
| C=Cc1c(OCCCO)ccc(C2=NNC(=O)CC2C)c1F (stereo not shown) [Example 85, 6-[2-Fluoro-4-(3-hydroxypropoxy)-3-vinylphenyl]-5-methyl-4,5-dihydro-2H-pyridazin-3-one] | 4 nM |
| CC1CC(=O)NN=C1c1ccc(OCCCO)c(F)c1F (stereo not shown) [Example 10, 6-[2,3-Difluoro-4-(3-hydroxypropoxy)phenyl]-5-methyl-4,5-dihydro-2H-pyridazin-3-one] | 3.7 nM |
| CC1CC(=O)NN=C1c1cc(F)c(OCC(F)(F)CO)c(Cl)c1 (stereo not shown) [Example 111, 6-[3-Chloro-4-(2,2-difluoro-3-hydroxypropoxy)-5-fluorophenyl]-5-methyl-4,5-dihydro-2H-pyridazin-3-one] | 3 nM |
| CC1CC(=O)NN=C1c1ccc(OCC(C)(C)CO)c(Br)c1F (stereo not shown) [Example 70, 6-[3-Bromo-2-fluoro-4-(3-hydroxy-2,2-dimethylpropoxy)phenyl]-5-methyl-4,5-dihydro-2H-pyridazin-3-one] | 5.3 nM |
| CC1CC(=O)NN=C1c1ccc(OCCCO)c(Br)c1F (stereo not shown) [Example 12, 6-[3-bromo-2-fluoro-4-(3-hydroxypropoxy)phenyl]-5-methyl-4,5-dihydro-2H-pyridazin-3-one] | 1.9 nM |
| C[C@@H]1CC(=O)NN=C1c1ccc(OCC(C)(C)O)c(Cl)c1O [Example 182, (5R)-(−)-6-[3-chloro-2-hydroxy-4-(2-hydroxy-2-methylpropoxy)phenyl]-5-methyl-4,5-dihydro-2H-pyridazin-3-one] | 2.9 nM |
| CC1CC(=O)NN=C1c1cc(Cl)c(OCCCO)c(Cl)c1 (stereo not shown) [Example 16, 6-[3,5-Dichloro-4-(3-hydroxypropoxy)phenyl]-5-methyl-4,5-dihydro-2H-pyridazin-3-one] | 3.6 nM |
| Cc1c(OCC(C)(C)O)ccc(C2=NNC(=O)C[C@H]2C)c1O [Example 179, (5R)-(−)-6-[2-hydroxy-4-(2-hydroxy-2-methylpropoxy)-3-methylphenyl]-5-methyl-4,5-dihydro-2H-pyridazin-3-one] | 3.3 nM |
| CC1CC(=O)NN=C1c1cc(F)c(OCC(O)(C(F)(F)F)C(F)(F)F)c(Cl)c1 (stereo not shown) [Example 37, 6-{3-Chloro-5-fluoro-4-[3,3,3-trifluoro-2-hydroxy-2-(trifluoromethyl)propoxy]phenyl}-5-methyl-4,5-dihydro-2H-pyridazin-3-one] | 8.8 nM |
| CCC(O)COc1ccc(C2=NNC(=O)CC2C)c(F)c1Cl (stereo not shown) [Example 64, 6-[3-chloro-2-fluoro-4-(2-hydroxybutoxy)phenyl]-5-methyl-4,5-dihydro-2H-pyridazin-3-one] | 2.1 nM |
| CCc1c(OCC(C)(C)O)ccc(C2=NNC(=O)CC2C)c1F (stereo not shown) [Example 134, 6-[3-Ethyl-2-fluoro-4-(2-hydroxy-2-methylpropoxy)phenyl]-5-methyl-4,5-dihydro-2H-pyridazin-3-one] | 7.1 nM |
| CC1CC(=O)NN=C1c1cc(Cl)c(OCC(F)(F)CO)c(Cl)c1 (stereo not shown) [Example 109, 6-[3,5-dichloro-4-(2,2-difluoro-3-hydroxypropoxy)phenyl]-5-methyl-4,5-dihydro-2H-pyridazin-3-one] | 1.6 nM |
| CC1CC(=O)NN=C1c1cc(F)c(OCC(C)(C)CO)c(F)c1 (stereo not shown) [Example 6, 6-[3,5-Difluoro-4-(3-hydroxy-2,2-dimethylpropoxy)phenyl]-5-methyl-4,5-dihydro-2H-pyridazin-3-one] | 3.8 nM |
